Reference: patent US9969775B2, “CGRP antagonist peptides” (Ferring B.V., priority 2015, dated 2018)
Like-named read-outs stand apart in the source and are kept apart here. Numbered stars: 1 amine (or outer) side, 2 acyl side, 3 side chain; on linkers, the order of the positions; unused ones are H or OH. Bridge positions count the residues as written; N and C are the ends. Square brackets hold non-standard residues; d marks the D form. Peptide text beside a SMILES is read from it. * marks the point of attachment. Phe(3-CH2NH2) = O=C([C@H](Cc1cccc(CN[*:3])c1)N[*:1])[*:2]; Phe(2-CONH2) = NC(=O)c1ccccc1C[C@H](N)C(=O)O; X13 = N#CN=C(N)NCC[C@H](N[*:1])C(=O)[*:2]; X5 = O=C([C@H](Cc1ccc(CO)cc1)N[*:1])[*:2]; X3 = NCc1ccccc1C[C@H](N[*:1])C(=O)[*:2]; Imidazole4carbonyl = O=C(c1cnc[nH]1)*; Picolinoyl(5-F) = O=C(c1ccc(F)cn1)*; Orn(iPr) = CC(C)NCCC[C@H](N)C(=O)O; Dab(iPr) = CC(C)NCC[C@H](N)C(=O)O; Benzoyl(4-F) = O=C(c1ccc(F)cc1)*; Oxazole2carbonyl = O=C(c1ncco1)*; 3Pal = N[C@@H](Cc1cccnc1)C(=O)O; Picolinoyl = O=C(c1ccccn1)*; ΔPro = O=C(O)[C@@H]1C=CCN1; Orn = NCCC[C@H](N)C(=O)O; X2 = Cc1n[nH]c(C(=O)*)n1; Dap = NC[C@H](N)C(=O)O; X1 = O=C(c1ncccc1F)*; Bz = O=C(c1ccccc1)*; X6 = O=C(c1ccncn1)*

Legend:
[1] = target: T1, hCGRP receptor (CALCRL:RAMP1) (Homo sapiens, UniProt O60894+Q16602); test: CGRP receptor antagonist activity measured by cAMP assay (HTRF); format: cell-based; conditions: for Emax: read-out: hCGRP-R Efficacy Antag (%) Ave; for IC50: GeneBLAzer CALCRL:RAMP1-CRE-bla Freestyle 293F cells, 30 minutes
T1 construct: host or cells: GeneBLAzer CALCRL:RAMP1-CRE-bla Freestyle 293F
T1 sequence (Q16602 23-461): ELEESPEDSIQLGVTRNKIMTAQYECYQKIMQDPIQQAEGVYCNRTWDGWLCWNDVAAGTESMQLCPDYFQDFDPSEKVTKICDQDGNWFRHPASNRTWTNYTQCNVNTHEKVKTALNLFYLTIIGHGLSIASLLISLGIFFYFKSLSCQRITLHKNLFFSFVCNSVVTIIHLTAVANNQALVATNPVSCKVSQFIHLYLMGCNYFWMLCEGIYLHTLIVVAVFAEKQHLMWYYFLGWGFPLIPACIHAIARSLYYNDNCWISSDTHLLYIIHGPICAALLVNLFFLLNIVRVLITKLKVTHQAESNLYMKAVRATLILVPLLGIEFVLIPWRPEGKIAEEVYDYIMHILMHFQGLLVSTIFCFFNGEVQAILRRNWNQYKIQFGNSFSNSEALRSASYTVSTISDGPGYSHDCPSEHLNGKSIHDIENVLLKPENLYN
T1 sequence (O60894 27-148): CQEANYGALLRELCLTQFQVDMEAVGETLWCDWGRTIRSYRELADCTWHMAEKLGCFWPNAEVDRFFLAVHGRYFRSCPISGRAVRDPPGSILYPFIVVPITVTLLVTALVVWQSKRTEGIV
Experimental: Example 6: CGRP Receptor Antagonist Activity Measured by cAMP Assay
CGRP receptor agonists increase intracellular cyclic adenosine mono-phosphate (cAMP). CGRP receptor antagonists can reduce the agonist effect. Antagonist activity was assessed by measurement of cyclic adenosine mono-phosphate (cAMP) using cell line stably expressing the hCGRP receptor (GeneBLAzer® CALCRL:RAMP1-CRE-bla Freestyle™ 293F, Invitrogen). hCGRP receptor expressing cells were maintained in DMEM high-glucose with GlutaMAX™ containing 10% (v/v) FBS, 0.1 mM NEAA, 25 mM HEPES, 5 ug/ml Blasticidin, 100 ug/ml Hygromycin, and 400 ug/ml Geneticin at 37° C. under 5% CO2 in a humidified atmosphere. For cAMP measurement, cells were washed once with 5 ml 1×PBS, cell maintenance media was replaced with compound buffer ((CB): DMEM containing 0.1% BSA and 0.5 mM IBMX), and flasks were incubated for 1 hour at 37° C. under 5% CO2 in a humidified atmosphere. Cells were removed from culture flasks using non-enzymatic cell dissociation buffer and harvested in CB. The reaction was performed in 384 well white small volume plates (Greiner) at a density of 10,000 cells/well. Cells were exposed to varying concentrations of antagonist compounds for 30 minutes in the presence of a fixed concentration of agonist (human α-CGRP). cAMP levels were measured using an HTRF (homogeneous time resolved fluorescence)-based competitive cAMP immunoassay (cAMP Dynamic 2 Kit, Cisbio), according to the manufacturer's instructions. […] Reported parameters include antagonist potency IC50 (the concentration causing half-maximal inhibition of the agonist response for antagonist compounds) and efficacy (% MPE: percent of the maximal possible effect).

[2] = target: T2, hAM2 receptor (CALCRL:RAMP3) (Homo sapiens, UniProt O60896+Q16602); test: AM2 receptor antagonist activity measured by cAMP assay (HTRF); format: cell-based; conditions: for Emax: read-out: hAM2-R Efficacy Antag (%) Ave; for IC50: GeneBLAzer CALCRL:RAMP3-CRE-bla Freestyle 293F cells; for selectivity ratio CGRP/AM2: selectivity ratio for hCGRP over hAM2, calculated from the IC50 values
T2 construct: expressed in transfected cells; host or cells: GeneBLAzer CALCRL:RAMP3-CRE-bla Freestyle 293F
T2 sequence (Q16602 23-461): as the sequence (Q16602 23-461) above
T2 sequence (O60896 24-148): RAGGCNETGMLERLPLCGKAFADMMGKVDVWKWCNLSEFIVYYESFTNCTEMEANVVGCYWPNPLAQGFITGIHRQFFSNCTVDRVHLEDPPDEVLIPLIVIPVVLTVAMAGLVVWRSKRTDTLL

[3] = % MPE: percent of the maximal possible effect, agonist human α-CGRP
[4] = agonist human α-CGRP, read-out: hCGRP-R IC50 Ave
[5] = % MPE: percent of the maximal possible effect, agonist human adrenomedullin
[6] = agonist human adrenomedullin, read-out: hAM2-R IC50 Ave

| SMILES | Emax [1, 3] | IC50 [1, 4] | Emax [2, 5] | IC50 [2, 6] | selectivity ratio CGRP/AM2 [2] | IC50 ([1]; hCGRP-R IC50 Ave, agonist human α-CGRP) | Emax [1] | IC50 ([2]; hAM2-R IC50 Ave, agonist human adrenomedullin) | Emax [2] |
| --- | --- | --- | --- | --- | --- | --- | --- | --- | --- |
| CC(C)[C@@H]1NC(=O)[C@H](CC(=O)O)NC(=O)[C@H](CCCNC(=N)N)NC(=O)[C@@H](NC(=O)[C@H](Cc2ccc(O)cc2)NC(=O)[C@H](NC(=O)c2cnc[nH]2)C(C)C)CSSC[C@@H](C(=O)N[C@@H](Cc2cccnc2)C(N)=O)NC(=O)[C@H](Cc2ccccc2)NC(=O)[C@@H]2CCCN2C(=O)CNC1=O [Compound 47] (Imidazole4carbonyl-[dV]YCRDVGPFC[3Pal]-NH2; disulfide 3-10) | – | 0.16 nM | – | 232 nM | – | – | – | – | – |
| CC(C)NCCC[C@@H]1NC(=O)[C@@H](NC(=O)[C@H](Cc2ccccc2C(N)=O)NC(=O)[C@H](NC(=O)c2ncco2)C(C)C)CSSC[C@@H](C(=O)N[C@@H](Cc2cccnc2)C(N)=O)NC(=O)[C@H](Cc2ccc(CO)cc2)NC(=O)[C@@H]2CCCN2C(=O)CNC(=O)[C@H](C(C)C)NC(=O)[C@H](CC(=O)O)NC1=O [Compound 64, Oxazole-2-carbonyl-D-Val-Phe(2-Cbm)-c(Cys-Orn(iPr)-Asp-Val-Gly-Pro-Phe(4-CH2OH)-Cys)-3Pal-NH2] (Oxazole2carbonyl-[dV][Phe(2-CONH2)]C[Orn(iPr)]DVGP[X5]C[3Pal]-NH2; disulfide 3-10) | 101% | 0.12 nM | 99% | 1250 nM | 10594 | – | – | – | – |
| CC(C)[C@@H]1NC(=O)[C@H](CC(=O)O)NC(=O)[C@H](CCNC(N)=NC#N)NC(=O)[C@@H](NC(=O)[C@H](Cc2ccc(O)cc2)NC(=O)[C@H](NC(=O)c2ccc(F)cc2)C(C)C)CSSC[C@@H](C(=O)N[C@@H](Cc2cccnc2)C(N)=O)NC(=O)[C@H](Cc2ccccc2)NC(=O)[C@@H]2CCCN2C(=O)CNC1=O [Compound 19, Bz(4-F)-D-Val-Tyr-c(Cys-norArg(CN)-Asp-Val-Gly-Pro-Phe-Cys)-3Pal-NH2] ({Benzoyl(4-F)}-[dV]YC[X13]DVGPFC[3Pal]-NH2; disulfide 3-10) | 100% | – | 100% | – | – | – | – | – | – |
| CC(C)[C@@H]1NC(=O)[C@H](CC(=O)O)NC(=O)[C@H](CCCN)NC(=O)[C@@H](NC(=O)[C@H](Cc2ccc(O)cc2)NC(=O)[C@H](NC(=O)c2ccc(F)cn2)C(C)C)CSSC[C@@H](C(=O)N[C@@H](Cc2cccnc2)C(N)=O)NC(=O)[C@H](Cc2ccc(CO)cc2)NC(=O)[C@@H]2CCCN2C(=O)CNC1=O [Compound 56, Picolinoyl(5-F)-D-Val-Tyr-c(Cys-Orn-Asp-Val-Gly-Pro-Phe(4-CH2OH)-Cys)-3Pal-NH2] ({Picolinoyl(5-F)}-[dV]YC[Orn]DVGP[X5]C[3Pal]-NH2; disulfide 3-10) | 100% | 0.17 nM | 100% | 55 nM | 328 | – | – | – | – |
| CC(C)[C@@H]1NC(=O)[C@H](CC(=O)O)NC(=O)[C@H](CN)NC(=O)[C@@H](NC(=O)[C@H](Cc2ccc(O)cc2)NC(=O)[C@H](NC(=O)c2ccccc2)C(C)C)CSSC[C@@H](C(=O)N[C@@H](Cc2cccnc2)C(N)=O)NC(=O)[C@H](Cc2ccccc2)NC(=O)[C@@H]2CCCN2C(=O)CNC1=O [Ref. Cpd. 2, Bz-D-Val-Tyr-c(Cys-Dpr-Asp-Val-Gly-Pro-Phe-Cys)-3Pal-NH2, reference compound] (Bz-[dV]YC[Dap]DVGPFC[3Pal]-NH2; disulfide 3-10) | – | – | – | – | 387 | 0.52 nM | 100% | 200 nM | 100% |
| CC(C)NCC[C@@H]1NC(=O)[C@@H](NC(=O)[C@H](Cc2ccc(O)cc2)NC(=O)[C@H](NC(=O)c2ccccn2)C(C)C)CSSC[C@@H](C(=O)N[C@@H](Cc2cccnc2)C(N)=O)NC(=O)[C@H](Cc2ccccc2)NC(=O)[C@@H]2CCCN2C(=O)CNC(=O)[C@H](C(C)C)NC(=O)[C@H](CC(=O)O)NC1=O [Compound 9, Picolinoyl-D-Val-Tyr-c(Cys-Dab(iPr)-Asp-Val-Gly-Pro-Phe-Cys)-3Pal-NH2] (Picolinoyl-[dV]YC[Dab(iPr)]DVGPFC[3Pal]-NH2; disulfide 3-10) | 100% | 0.15 nM | 106% | 51 nM | 351 | – | – | – | – |

Continued, in another order:

| Emax [1, 3] | IC50 [1, 4] | Emax [2, 5] | IC50 [2, 6] | selectivity ratio CGRP/AM2 [2] | SMILES | IC50 ([1]; hCGRP-R IC50 Ave, agonist human α-CGRP) | Emax [1] | IC50 ([2]; hAM2-R IC50 Ave, agonist human adrenomedullin) | Emax [2] |
| --- | --- | --- | --- | --- | --- | --- | --- | --- | --- |
| 100% | 0.04 nM | 101% | 180 nM | 4693 | CC(C)NCCC[C@@H]1NC(=O)[C@@H](NC(=O)[C@H](Cc2ccccc2C(N)=O)NC(=O)[C@H](NC(=O)c2ncco2)C(C)C)CSSC[C@@H](C(=O)N[C@@H](Cc2cccnc2)C(N)=O)NC(=O)[C@H](Cc2cccc(CN)c2)NC(=O)[C@@H]2C=CCN2C(=O)CNC(=O)[C@H](C(C)C)NC(=O)[C@H](CC(=O)O)NC1=O [Compound 43, Oxazole-2-carbonyl-D-Val-Phe(2-Cbm)-c(Cys-Orn(iPr)-Asp-Val-Gly-Dhp-Phe(3-CH2NH2)-Cys)-3Pal-NH2] (Oxazole2carbonyl-[dV][Phe(2-CONH2)]C[Orn(iPr)]DVG[ΔPro][Phe(3-CH2NH2)]C[3Pal]-NH2; disulfide 3-10) | – | – | – | – |
| 100% | 0.05 nM | 100% | 7.1 nM | 148 | CC(C)[C@@H]1NC(=O)[C@H](CC(=O)O)NC(=O)[C@H](CCCNC(=N)N)NC(=O)[C@@H](NC(=O)[C@H](Cc2ccc(O)cc2)NC(=O)[C@H](NC(=O)c2ncccc2F)C(C)C)CSSC[C@@H](C(=O)N[C@@H](Cc2cccnc2)C(N)=O)NC(=O)[C@H](Cc2ccccc2)NC(=O)[C@@H]2CCCN2C(=O)CNC1=O [Compound 17] (X1-[dV]YCRDVGPFC[3Pal]-NH2; disulfide 3-10) | – | – | – | – |
| 100% | 0.09 nM | 98% | 148 nM | 1699 | CC(C)[C@@H]1NC(=O)[C@H](CC(=O)O)NC(=O)[C@H](CCCN)NC(=O)[C@@H](NC(=O)[C@H](Cc2ccc(O)cc2)NC(=O)[C@H](NC(=O)c2ncccc2F)C(C)C)CSSC[C@@H](C(=O)N[C@@H](Cc2cccnc2)C(N)=O)NC(=O)[C@H](Cc2ccc(CO)cc2)NC(=O)[C@@H]2CCCN2C(=O)CNC1=O [Compound 29, Picolinoyl(3-F)-D-Val-Tyr-c(Cys-Orn-Asp-Val-Gly-Pro-Phe(4-CH2OH)-Cys)-3Pal-NH2] (X1-[dV]YC[Orn]DVGP[X5]C[3Pal]-NH2; disulfide 3-10) | – | – | – | – |
| 100% | 0.12 nM | 99% | 624 nM | 5225 | CC(C)NCCC[C@@H]1NC(=O)[C@@H](NC(=O)[C@H](Cc2ccccc2C(N)=O)NC(=O)[C@H](NC(=O)c2ncco2)C(C)C)CSSC[C@@H](C(=O)N[C@@H](Cc2cccnc2)C(N)=O)NC(=O)[C@H](Cc2ccc(O)cc2)NC(=O)[C@@H]2C=CCN2C(=O)CNC(=O)[C@H](C(C)C)NC(=O)[C@H](CC(=O)O)NC1=O [Compound 57, Oxazole-2-carbonyl-D-Val-Phe(2-Cbm)-c(Cys-Orn(iPr)-Asp-Val-Gly-Dhp-Tyr-Cys)-3Pal-NH2] (Oxazole2carbonyl-[dV][Phe(2-CONH2)]C[Orn(iPr)]DVG[ΔPro]YC[3Pal]-NH2; disulfide 3-10) | – | – | – | – |
| 100% | 0.07 nM | 101% | 6.8 nM | 93 | CC(C)[C@@H]1NC(=O)[C@H](CC(=O)O)NC(=O)[C@H](CCCNC(=N)N)NC(=O)[C@@H](NC(=O)[C@H](Cc2ccc(O)cc2)NC(=O)[C@H](NC(=O)c2ccncn2)C(C)C)CSSC[C@@H](C(=O)N[C@@H](Cc2cccnc2)C(N)=O)NC(=O)[C@H](Cc2ccccc2)NC(=O)[C@@H]2CCCN2C(=O)CNC1=O [Compound 16] (X6-[dV]YCRDVGPFC[3Pal]-NH2; disulfide 3-10) | – | – | – | – |
| 100% | 0.11 nM | 98% | 901 nM | 8130 | Cc1n[nH]c(C(=O)N[C@@H](C(=O)N[C@@H](Cc2ccc(O)cc2)C(=O)N[C@H]2CSSC[C@@H](C(=O)N[C@@H](Cc3cccnc3)C(N)=O)NC(=O)[C@H](Cc3ccccc3CN)NC(=O)[C@@H]3CCCN3C(=O)CNC(=O)[C@H](C(C)C)NC(=O)[C@H](CC(=O)O)NC(=O)[C@H](CCCNC(=N)N)NC2=O)C(C)C)n1 [Compound 53, 1H-1,2,4-triazole-5-carbonyl(3-Me)-D-Val-Tyr-c(Cys-Arg-Asp-Val-Gly-Pro-Phe(2-CH2NH2)-Cys)-3Pal-NH2] (X2-[dV]YCRDVGP[X3]C[3Pal]-NH2; disulfide 3-10) | – | – | – | – |
